These results are taken from patent US20080269102A1, “3-(2-Alkoxycarbonyloxy-Phenyl) Acrylic Acid Esters And Their Use As Precursors For The Delivery Of Olfactory Compounds” (GIVAUDAN SA, priority 2004, published 2008).

Series [1] is described as follows: UV-spectra / colour comparison of protected and non-protected fragrance precursor in presence of a fabric conditioner. To be noted: 0.1 mg/ml in CH3CN/H2O (3:2), visually judged. The class given is physicochemical. Here is the method:
UV-Spectra Comparison (Protected/Non Protected Fragrance in Presence of a Fabric Conditioner)
Solutions A to D, 5 ml each, were prepared using CH3CN/H2O (3:2) as a solvent and their colour visually judged.
After adding a fabric conditioner to a solution comprising an unprotected fragrance precursor (solution A/B) the solution turned bright yellow, whereas a solution comprising a protected fragrance precursor (solution C/D) remains colourless.
The UV-spectra of solutions A to D were recorded and are depicted in FIG. 1.

Setting [2] is: additive fabric conditioner (30 mg).

Each structure is given as a SMILES string.

For orientation: melting point means the temperature of the solid-liquid transition.

`CC(C)=CCCC(C)CCOC(=O)C=Cc1ccccc1O` (stereo not drawn) [Example 1, 3-(2-Hydroxy-phenyl)acrylic acid 3,7-dimethyl-oct-6-enyl ester] had a melting point of 37 to 39 °C.
`C=CCCCCCCCCOC(=O)C=Cc1ccccc1O` [Example 2, 3-(2-Hydroxy-phenyl)acrylic acid dec-9-enyl ester]: the melting point turned out to be 58 °C. The Colour result in series [1] (setting [2]) is recorded as “Bright”. Moreover, the Colour entry in series [1] (additive none) is “colourless”.
On to `C=CCCCCCCCCOC(=O)C=Cc1ccccc1OC(=O)Oc1ccccc1C=CC(=O)OCCCCCCCCC=C` [Example 3], for which the Colour result in series [1] (setting [2]) and in series [1] (additive none) was “colourless” each time.
